One experiment deals with T47D cells. The experiment can be described thus: Drug library screen (Selleck anti-cancer, NPC, NIH bioactive), PSMD2 KD vs control T47D cells. It counts as cell-based, human. The conditions noted are these: for growth inhibition of T47D cells with reduced level of PSMD2 vs control T47D cells: Selleck anti-cancer compound library screen. On the procedure:
Schematic representation of the drug screen setup. (FIG. 37A) 147D cells harboring a doxycycline-inducible PSMD2 shRNA were grown in the presence or absence of doxycycline for 48 hr. Cells were then collected, washed, and plated in the absence of doxycycline for 24 hr prior to exposure different compounds. Relative cell numbers were measured 3 days later.
The relative viability of the Lo19S versus control cells was calculated for replica experiments and the log2 of the ratio is plotted. […] The relative viability of the respiring cells (Hi-OXPHOS) (gal) versus the control cells (glu) was calculated for replica experiments and the log2 of the ratio is plotted.
After 48 hours the cells were collected, counted, and plated at 1000 cells/well in 384 well plates in duplicates for each cell line. Compounds from the Selleck Chemicals anti-cancer compound library (349 drugs in 4 concentrations; […]) were pinned the next day and viability was measured after 72 hours by the reduction of Resazurin (Ex=530 run, Em=590nin). (See FIG. 37A for schematic of screen.)

Experiment [1] has as its system T47D cells harboring a doxycycline inducible PSMD2 KD shRNA construct. The experiment can be described thus: Viability of PSMD2 knockdown versus control T47D cells, dose response and combinations (CellTiter-Glo). It counts as cell-based, human. To be noted: for sensitivity of PSMD2 KD cells versus control cells (cell viability): 1 ug/ml doxycycline 72 h, viability 72 hours after addition, CellTiter-Glo. On the procedure:
Cell viability was measured by CellTiter-Glot Luminescent Cell Viability Assay 72 hours after addition of the compounds to cells.
Cell viability was measured by CellTiter-Glo® Luminescent Cell Viability Assay 72 hours after addition of the compounds were added to cells.
Cell viability was measured by CellTiter-Glolk Luminescent Cell Viability Assay 72 hours after addition of the compounds to cells.
To directly test whether altered cellular metabolism can modulate the sensitivity of cancer cells to proteasome inhibitors, we engineered the breast cancer cell line T47D into Lo19S and increased OXPHOS states. Initially, we reconstituted the Lo19S state by transient suppression of the PSMD2 subunit of the 19S complex using an inducible shRNA.
To induce a high OXPHOS (Hi-OXPHOS) state, we changed the carbon source in the cell culture media from glucose to galactose, which is poorly fermentable. This method has been previously shown to drive glutamine utilization by mitochondria and to thus increase mitochondrial respiration (Gohil et al., 2010). […] We reasoned that the Hi-OXPHOS signature we identified in Lo19S patient tumors may cooperate with the Lo19S state to further promote the ability of the cells to withstand proteotoxic stress.
Cell viability—where indicated relative cell number following different drug treatment was conducted by plating cells at 1000 cells/well in 384 well plates. Indicated concentrations of compounds were added 24 hour after plating at least in triplicate for each condition. Viability was measured 72 hours after drug addition using cell titer-glo (Promega) according to manufactures protocol. Same protocol was applied for the experiments conducted for the Lo19S T47D, MCF7 and T47D in the context of altered carbon source only the cells were plated at 1000 cells/well in RPMI media (without glucose and with dialyzed serum) containing either 10 mM Glucose or lOmM galactose.

Another experiment deals with MM.1.S xenograft. The experiment can be described thus: Disseminated (orthotopic) multiple myeloma MM.1.S xenograft model and survival study. It counts as in vivo, mouse. To be noted: for effect on tumor burden / tumor progression (BLI) / median OS: SCID mice, MM.1.S; for effect on tumor burden / tumor progression (BLI): bioluminescence imaging; for median OS: control median OS 36. Here is the method:
To test this hypothesis, we established an orthotopic luciferized MM.1.S xenograft model by intravenous injection of MM.1.S cells into severe combined immunodeficient (SCID) mice. After engraftment, the mice were randomized into treatment groups, each carrying equivalent tumor burdens based on bioluminescence imaging (BLI). Mice were then treated with either vehicle alone, bortezomib, elesclomol or with the two drugs in combination.
GFP^+/Luc^+MM.1S cells were generated by retroviral transduction of the human MM1.S that was purchased from ATCC (Manassas, Va., USA)., using the pGC-GFP/Luc vector. Cells were authenticated by short tandem repeat DNA profiling.
Disseminated Multiple Myeloma Animal model and survival study—A total of 25 Female SCID-beige mice at 4-6 weeks of age (Taconic, USA) were utilized for the study. Tumors cells (3 million […] MM1S cells/mouse) were introduced into mice via intravenous injection and were allowed to grow until the LUC signal from their tumors reached 1×10^7 radians (photons/sec/cm^2/surface area). Tumor growth was monitored weekly by bioluminescence imaging (BLI), using an IVIS Spectrum-bioluminescent and fluorescent imaging system (Perkins Elmer). Mice were randomly attributed a group of treatment (n=5 per group). Control group was IV injected once a week 200 uL saline solution; Bortezomib (0.25 mg/kg, 100 uL) was IP injected first day of the week, once a week until death of the animal. Elesclomol (25 mg/kg, 100 uL) was subcutaneously injected every 3rd day of the week until death of the animal. Elesclomol+Bortezomib group were treated similarly to previous groups. The delayed group started the elesclomol treatment 14 days after the inclusion of the animal in the study. Endpoint of the study was dictated by either limb-paralysis of the animal or severe toxicity induced by the treatment as per Dana-Farber Animal policy.

“Also recorded” adds a separate entry of the source.

As to `CC1(C)CCC(c2ccc(Cl)cc2)=C(CN2CCN(c3ccc(C(=O)NS(=O)(=O)c4ccc(N[C@H](CCN5CCOCC5)CSc5ccccc5)c(S(=O)(=O)C(F)(F)F)c4)cc3)CC2)C1` [ABT-263, navitoclax], in the experiment on T47D cells, the “sensitivity of proteasome inhibitor resistant cancer cells vs sensitive counterpart cells” value was “highly sensitive” and the “growth inhibition of T47D cells with reduced level of PSMD2 vs control T47D cells” value is given as “selectively inhibits growth”. For the same compound, in experiment [1], the “sensitivity of PSMD2 KD cells versus control cells (cell viability)” value is “more sensitive; also recorded: not sufficient, however, to induce a profound sensitization”.

`CC(C)C[C@H](NC(=O)[C@H](Cc1ccccc1)NC(=O)c1cnccn1)B(O)O` [bortezomib]: the “sensitivity of PSMD2 KD cells versus control cells (cell viability)” value in experiment [1] is recorded as “increase in resistance”. The “increase in the EC90 on combining the Lo19S and Hi-OXPHOS states” value in experiment [1] (T47D, PSMD2 suppression plus galactose medium) is reported as 50 fold. Also, the “increase of proliferation inhibition EC50 on inducing the Lo19S state” value in experiment [1] (T47D, transient PSMD2 suppression versus control) was around 4 fold. Moreover, in the experiment with MM.1.S xenograft, the “effect on tumor burden / tumor progression (BLI)” value was “modest effects on tumor burden” and the “median OS” value is given as 40.

For the compound `CN(NC(=O)CC(=O)NN(C)C(=S)c1ccccc1)C(=S)c1ccccc1` [elesclomol], in the experiment with T47D cells, the “sensitivity of proteasome inhibitor resistant cancer cells vs sensitive counterpart cells” value is reported as “highly sensitive” and the “growth inhibition of T47D cells with reduced level of PSMD2 vs control T47D cells” value was “selectively inhibit growth”. Besides, in the experiment on MM.1.S xenograft, the “effect on tumor burden / tumor progression (BLI)” value is listed as “modest effects on tumor burden” and the “median OS” value is recorded as 39. The effect on survival entry with MM.1.S xenograft (versus control) is “modestly but significantly increased survival”.

Source of the values: patent US20180353445A1, “METHODS AND COMPOSITIONS RELATING TO PROTEASOME INHIBITOR RESISTANCE” (Whitehead Institute for Biomedical Research, priority 2017, published 2018).
